Test results from ChEMBL document CHEMBL3046572, “Synthesis and evaluation of antibacterial and antitubercular activities of some novel imidazo[2,1-b][1,3,4]thiadiazole derivatives” (2013).
Converted amounts (≈) assume the structure as drawn.

Columns and labels:
Type in all cases: functional
Bacillus subtilis = test: Antibacterial activity against Bacillus subtilis assessed as growth inhibition after 18 hr by broth microdilution method
Staphylococcus aureus = test: Antibacterial activity against Staphylococcus aureus assessed as growth inhibition after 18 hr by broth microdilution method
Escherichia coli = test: Antibacterial activity against Escherichia coli assessed as growth inhibition after 18 hr by broth microdilution method
Vibrio cholerae = test: Antibacterial activity against Vibrio cholerae assessed as growth inhibition after 18 hr by broth microdilution method
[1] = system: Mycobacterium tuberculosis; test: Antitubercular activity against Mycobacterium tuberculosis H37Rv assessed as growth inhibition after 5 days by microplate alamar blue assay; conditions: 120 h

Structure (SMILES)	MIC (Bacillus subtilis)	MIC (Staphylococcus aureus)	MIC (Escherichia coli)	MIC (Vibrio cholerae)	MIC [1]
CCn1cc(C(=O)O)c(=O)c2cc(F)c(N3CCNCC3)cc21 [NORFLOXACIN]	2 µg/mL (≈ 6.26 µM)	2 µg/mL (≈ 6.26 µM)	16 µg/mL (≈ 50.1 µM)	1 µg/mL (≈ 3.13 µM)	–
NC(=O)c1cnccn1 [PYRAZINAMIDE]	–	–	–	–	3.12 µg/mL (≈ 25.4 µM)
CCN(CC)c1ccc2cc(-c3nc4sc(S(N)(=O)=O)nn4c3Br)c(=O)oc2c1	62.5 µg/mL (≈ 125 µM)	62.5 µg/mL (≈ 125 µM)	16 µg/mL (≈ 32.1 µM)	16 µg/mL (≈ 32.1 µM)	6.25 µg/mL (≈ 12.5 µM)
CCN(CC)c1ccc2cc(-c3nc4sc(S(=O)(=O)/N=C/N(C)C)nn4c3C#N)c(=O)oc2c1	62.5 µg/mL (≈ 125 µM)	62.5 µg/mL (≈ 125 µM)	16 µg/mL (≈ 32 µM)	16 µg/mL (≈ 32 µM)	25 µg/mL (≈ 50 µM)
CN[C@@H]1[C@H](O[C@H]2[C@H](O[C@H]3[C@H](O)[C@@H](O)[C@H](N=C(N)N)[C@@H](O)[C@@H]3N=C(N)N)O[C@@H](C)[C@]2(O)C=O)O[C@@H](CO)[C@H](O)[C@H]1O [STREPTOMYCIN]	–	–	–	–	6.25 µg/mL (≈ 10.7 µM)
CCN(CC)c1ccc2cc(-c3cn4nc(S(N)(=O)=O)sc4n3)c(=O)oc2c1	62.5 µg/mL (≈ 149 µM)	62.5 µg/mL (≈ 149 µM)	31.2 µg/mL (≈ 74.5 µM)	31.2 µg/mL (≈ 74.5 µM)	3.12 µg/mL (≈ 7.45 µM)
CCN(CC)c1ccc2cc(-c3nc4sc(S(=O)(=O)/N=C/N(C)C)nn4c3CO)c(=O)oc2c1	31.2 µg/mL (≈ 61.9 µM)	31.2 µg/mL (≈ 61.9 µM)	8 µg/mL (≈ 15.9 µM)	8 µg/mL (≈ 15.9 µM)	3.12 µg/mL (≈ 6.19 µM)
CCN(CC)c1ccc2cc(-c3nc4sc(S(=O)(=O)/N=C/N(C)C)nn4c3/C=N/O)c(=O)oc2c1	62.5 µg/mL (≈ 121 µM)	62.5 µg/mL (≈ 121 µM)	16 µg/mL (≈ 30.9 µM)	16 µg/mL (≈ 30.9 µM)	25 µg/mL (≈ 48.3 µM)
CCN(CC)c1ccc2cc(-c3nc4sc(S(N)(=O)=O)nn4c3SC#N)c(=O)oc2c1	62.5 µg/mL (≈ 131 µM)	62.5 µg/mL (≈ 131 µM)	31.2 µg/mL (≈ 65.6 µM)	31.2 µg/mL (≈ 65.6 µM)	12.5 µg/mL (≈ 26.2 µM)
CCN(CC)c1ccc2cc(-c3nc4sc(S(N)(=O)=O)nn4c3CN3CCCC3)c(=O)oc2c1	62.5 µg/mL (≈ 124 µM)	62.5 µg/mL (≈ 124 µM)	8 µg/mL (≈ 15.9 µM)	8 µg/mL (≈ 15.9 µM)	25 µg/mL (≈ 49.7 µM)
CCN(CC)c1ccc2cc(-c3nc4sc(S(=O)(=O)/N=C/N(C)C)nn4c3C=O)c(=O)oc2c1	16 µg/mL (≈ 31.8 µM)	16 µg/mL (≈ 31.8 µM)	4 µg/mL (≈ 7.96 µM)	4 µg/mL (≈ 7.96 µM)	1.6 µg/mL (≈ 3.18 µM)
CCN(CC)c1ccc2cc(-c3nc4sc(S(=O)(=O)/N=C/N(C)C)nn4c3/C=N/NC(=N)N)c(=O)oc2c1	16 µg/mL (≈ 28.6 µM)	16 µg/mL (≈ 28.6 µM)	1 µg/mL (≈ 1.79 µM)	1 µg/mL (≈ 1.79 µM)	0.8 µg/mL (≈ 1.43 µM)
CCN(CC)c1ccc2cc(-c3nc4sc(S(N)(=O)=O)nn4c3N=O)c(=O)oc2c1	125 µg/mL (≈ 279 µM)	125 µg/mL (≈ 279 µM)	31.2 µg/mL (≈ 69.7 µM)	31.2 µg/mL (≈ 69.7 µM)	50 µg/mL (≈ 111 µM)
CCN(CC)c1ccc2cc(-c3nc4sc(S(N)(=O)=O)nn4c3CN3CCOCC3)c(=O)oc2c1	62.5 µg/mL (≈ 121 µM)	62.5 µg/mL (≈ 121 µM)	31.2 µg/mL (≈ 60.3 µM)	31.2 µg/mL (≈ 60.3 µM)	25 µg/mL (≈ 48.2 µM)
CCN(CC)c1ccc2cc(-c3nc4sc(S(=O)(=O)/N=C/N(C)C)nn4c3C3SCC(=O)N3c3ccccc3)c(=O)oc2c1 (stereo unspecified)	16 µg/mL (≈ 24.5 µM)	16 µg/mL (≈ 24.5 µM)	1 µg/mL (≈ 1.53 µM)	1 µg/mL (≈ 1.53 µM)	0.8 µg/mL (≈ 1.23 µM)
CCN(CC)c1ccc2cc(-c3nc4sc(S(N)(=O)=O)nn4c3CN3CCCCC3)c(=O)oc2c1	62.5 µg/mL (≈ 121 µM)	62.5 µg/mL (≈ 121 µM)	31.2 µg/mL (≈ 60.5 µM)	31.2 µg/mL (≈ 60.5 µM)	25 µg/mL (≈ 48.4 µM)
